Experimental data as given in patent US8101624B2, “Quinazoline derivatives” (Aska Pharmaceutical Co., Ltd., priority 2006, dated 2012).

Target: T1, human recombinant PDE9 protein (hsPDE9A1) (Homo sapiens, UniProt O76083)
T1 construct: made in house; host or cells: COS-1 cells (transient transfection, pcDNA 3.1(+))
Test: Measurement of PDE9-inhibiting activity ([3H]-cGMP hydrolysis)
Assay type: biochemical
Details: for inhibition at 1 µM: human recombinant PDE9, read-out: Inhibiting Activity PDE9 (percent inhibition at 1 μM)
Procedure: (1) Measurement of PDE9-Inhibiting Activity:
1) Preparation of Human Recombinant PDE9 Protein
Based on the base sequence of hsPDE9A1 registered with GenBank database (accession No.: AF048837), hsPDE9A1 fragment was amplified by polymerase chain reaction under the following conditions, using the following sequence (Amasham Pharmacia Biotech) as the primer and Human Prostate […] cDNA library (CLONTECH) as the template DNA, with Pfu Turbo DNA polymerase ([…]):
PCR condition: [95° C., 5 min]×1 cycle, [(95° C., 1 min), (58° C., 2 min), (72° C., 3 min)]×25 cycles, [72° C., 10 min]×1 cycle
Thus obtained hsPDE9A1 fragment was given a restricted enzymatic treatment with NheI and NotI, and thereafter inserted into pcDNA 3.1(+) expression vector (Invitrogen) to let it serve as a human PDE9 expression vector.
Human PDE9 expression vector-transformed Escherichia coli was mass incubated to produce a large amount of human PDE9 expression vector, which was transiently transfected into COS-1 cells, with LIPOFECTAMINE 2000 Reagent (GIBCO). The cells were homogenized in ice-cooled buffer A (40 mmol/L Tris-HCl, pH7.5, 15 mmol/L benzamidine, 15 mmol/L 2-mercaptoethanol, 1 μg/mL Pepstatin A, 1 μg/mL Leupeptin, 5 mmol/L EDTA) and centrifuged at 4° C., 14,000×g for 10 minutes. The supernatant was isolated to provide human recombinant PDE9 protein solution.
2) Measurement of PDE9-Inhibiting Activity
To 150 μL of buffer B (70 mmol/L Tris-HCl, pH7.5; 16.7 mmol/L MgCl2, 33.3 nmol/L [^3H]-cGMP) solution containing [^3H]-cGMP (specific activity=244.2 GBq/mmol) at a concentration of 33.3 nmol/L, 50 μL of a solution of the compound to be evaluated (formed by dissolving the compound in DMSO and diluting it with distilled water to DMSO concentration of 5%) and 50 μL of the PDE9 protein solution as prepared in the above, as diluted with buffer C (40 mmol/L Tris-HCl, pH7.5, 15 mmol/L benzamidine, 15 mmol/L 2-mercaptoethanol, 1 μg/mL Pepstatin A, 1 μg/mL Leupeptin) by 1,500×, were added under cooling with ice. This mixed solution was incubated at 30° C. for 30 minutes and the enzymatic reaction of PDE9 was terminated by heating the system in boiling water for 90 seconds. Returning the system to room temperature, 50 μL of Snake venom (SIGMA: 1 mg/mL) was added, followed by 10 minutes' incubation at 30° C., to convert the [^3H]-5′-GMP produced in the previous reaction to [^3H]-guanosine. This reaction solution was passed through a column filled with 1 mL of 0.5 mol/L hydrochloric acid-activated cation-exchange resin (Bio-Rad AG50W-X4 resin, mesh size 200-400) and removed of the unreacted substrate ([^3H]-cGMP) by elution with 12 mL of distilled water. Thereafter [^3H]-guanosine was eluted with 3 mL of 3 mol/L aqueous ammonia and its radiation activity was measured with liquid scintillation counter.
PDE9 inhibition of the tested compound can be calculated by the following formula: […]
From the percent inhibition at various concentration levels of each tested compound, its IC50 value against PDE9 can be determined.

T1 sequence (O76083 whole entry): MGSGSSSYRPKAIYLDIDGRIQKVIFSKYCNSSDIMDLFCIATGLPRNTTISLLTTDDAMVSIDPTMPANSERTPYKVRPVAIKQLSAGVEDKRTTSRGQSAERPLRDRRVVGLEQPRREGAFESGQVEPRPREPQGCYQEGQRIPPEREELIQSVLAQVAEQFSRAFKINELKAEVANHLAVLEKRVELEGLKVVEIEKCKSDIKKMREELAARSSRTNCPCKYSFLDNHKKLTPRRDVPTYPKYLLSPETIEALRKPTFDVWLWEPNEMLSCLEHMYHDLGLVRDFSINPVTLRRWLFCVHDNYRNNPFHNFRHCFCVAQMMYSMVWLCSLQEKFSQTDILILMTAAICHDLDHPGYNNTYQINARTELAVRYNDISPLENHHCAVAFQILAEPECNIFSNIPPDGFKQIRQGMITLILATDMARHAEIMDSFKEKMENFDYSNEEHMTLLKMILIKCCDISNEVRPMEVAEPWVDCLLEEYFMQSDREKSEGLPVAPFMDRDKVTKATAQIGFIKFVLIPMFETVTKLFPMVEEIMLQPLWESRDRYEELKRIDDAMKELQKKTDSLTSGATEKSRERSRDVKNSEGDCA

| inhibition at 1 µM | Structure (SMILES) | also measured |
| --- | --- | --- |
| 11% | COc1ccc(Cc2nc3cc(C(=O)O)ccc3c(=O)[nH]2)cc1OC [Example 3, 2-(3,4-Dimethoxybenzyl)-4-oxo-3,4-dihydroquinazoline-7-carboxylic acid] |  |
| 41% | COc1cccc(Cc2nc3cc(C(=O)O)ccc3c(=O)[nH]2)c1 [Example 5, 2-(3-Methoxybenzyl)-4-oxo-3,4-dihydroquinazoline-7-carboxylic acid] |  |
|  | O=C(O)c1ccc2c(=O)[nH]c(Cc3ccccn3)nc2c1 [Example 6, 4-Oxo-2-(2-pyridylmethyl)-3,4-dihydroquinazoline-7-carboxylic acid] | IC50 (human recombinant PDE9 expressed in COS-1 cells, 30° C., 30 minutes): 1360 nM |
| 30% | O=C(O)c1ccc2c(=O)[nH]c(Cc3cccnc3)nc2c1 [Example 7, 4-Oxo-2-(3-pyridylmethyl)-3,4-dihydroquinazoline-7-carboxylic acid] |  |
|  | Cn1c(Cc2cccc(Cl)c2)nc2cc(C(=O)O)ccc2c1=O [Referential Example 1, 2-(3-Chlorobenzyl)-3-methyl-4-oxo-3,4-dihydroquinazoline-7-carboxylic acid, reference compound] | PDE9-inhibiting activity relative to that of the compound of Example 1 (ratio of activity versus Example 1): less than 1/100 |
